Data published in patent publication US7683069B2, “3-substituted-4-pyrimidone derivatives” (Mitsubishi Tanabe Pharma Corporation, priority 2002, dated 2010).
pIC50: −log10 of the molar value.

The compounds below were run against T1, bovine cerebral TPK1 (Bos taurus, UniProt A0A3Q1MT31) (assay: Inhibitory activity against P-GS1 phosphorylation by bovine cerebral TPK1). Settings: 41.7 μM [γ-32P] ATP, 25° C., 2 hours, pH 6.5.
T1 construct: bovine cerebral TPK1; from tissue; host or cells: bovine brain (cerebrum)
T1 sequence (A0A3Q1MT31 1-419): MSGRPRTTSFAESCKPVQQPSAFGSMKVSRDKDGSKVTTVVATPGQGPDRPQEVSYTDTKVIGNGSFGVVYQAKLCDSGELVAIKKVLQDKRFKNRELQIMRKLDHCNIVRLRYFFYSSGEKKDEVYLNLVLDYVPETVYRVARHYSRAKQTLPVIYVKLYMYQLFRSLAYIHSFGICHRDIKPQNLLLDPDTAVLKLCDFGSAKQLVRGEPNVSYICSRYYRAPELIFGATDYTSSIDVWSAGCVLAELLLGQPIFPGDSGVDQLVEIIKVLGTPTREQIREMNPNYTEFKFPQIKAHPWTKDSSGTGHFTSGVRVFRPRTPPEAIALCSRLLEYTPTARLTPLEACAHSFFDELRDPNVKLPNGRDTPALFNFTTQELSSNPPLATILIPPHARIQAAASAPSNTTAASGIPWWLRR
Format: biochemical
Procedure: Inhibitory Activity of the Medicament of the Present Invention Against P-GS1 Phosphorylation by Bovine Cerebral TPK1
A mixture containing 100 mM MES-sodium hydroxide (pH 6.5), 1 mM magnesium acetate, 0.5 mM EGTA, 5 mM β-mercaptoethanol, 0.02% Tween 20, 10% glycerol, 12 μg/ml P-GS1, 41.7 μM [γ-^32P] ATP (68 kBq/ml), bovine cerebral TPK1 and a compound shown in Table (a final mixture contained 1.7% DMSO deriving from a solution of a test compound prepared in the presence of 10% DMSO) was used as a reaction system. The phosphorylation was started by adding ATP, and the reaction was conducted at 25° C. for 2 hours, and then stopped by adding 21% perchloric-acid on ice cooling. The reaction mixture was centrifuged at 12,000 rpm for 5 minutes and adsorbed on P81 paper (Whatmann), and then the paper was washed four times with 75 mM phosphoric acid, three times with water and once with acetone. The paper was dried, and the residual radioactivity was measured using a liquid scintillation counter.

pIC50 | SMILES
8.15 | Cn1c(N2CCC=C(c3ccccc3)C2)nc(-c2ccncc2)cc1=O [Compound A001, 2-(5-phenyl-3,6-dihydro-2H-pyridin-1-yl)-3-methyl-6-pyridin-4-yl-3H-pyrimidin-4-one]
8.92 | Cn1c(N2CCC=C(c3ccccc3F)C2)nc(-c2ccncc2)cc1=O [Compound A002, 2-[5-(2-fluorophenyl)-3,6-dihydro-2H-pyridin-1-yl]-3-methyl-6-pyridin-4-yl-3H-pyrimidin-4-one]
7.89 | Cn1c(N2CCC=C(c3ccc(F)cc3)C2)nc(-c2ccncc2)cc1=O [Compound A004, 2-[5-(4-fluorophenyl)-3,6-dihydro-2H-pyridin-1-yl]-3-methyl-6-pyridin-4-yl-3H-pyrimidin-4-one]
7.77 | Cn1c(N2CCC=C(c3ccc(F)cc3F)C2)nc(-c2ccncc2)cc1=O [Compound A012, 2-[5-(2,4-difluorophenyl)-3,6-dihydro-2H-pyridin-1-yl]-3-methyl-6-pyridin-4-yl-3H-pyrimidin-4-one]
8.30 | COc1ccccc1C1=CCCN(c2nc(-c3ccncc3)cc(=O)n2C)C1 [Compound A020, 2-[5-(2-methoxyphenyl)-3,6-dihydro-2H-pyridin-1-yl]-3-methyl-6-pyridin-4-yl-3H-pyrimidin-4-one]
8.06 | COc1ccc(C2=CCCN(c3nc(-c4ccncc4)cc(=O)n3C)C2)cc1 [Compound A022, 2-[5-(4-methoxyphenyl)-3,6-dihydro-2H-pyridin-1-yl]-3-methyl-6-pyridin-4-yl-3H-pyrimidin-4-one]
7.80 | COc1cccc(OC)c1C1=CCCN(c2nc(-c3ccncc3)cc(=O)n2C)C1 [Compound A026, 2-[5-(2,6-dimethoxyphenyl)-3,6-dihydro-2H-pyridin-1-yl]-3-methyl-6-pyridin-4-yl-3H-pyrimidin-4-one]
7.51 | Cn1c(N2CCC=C(c3ccccc3C(F)(F)F)C2)nc(-c2ccncc2)cc1=O [Compound A027, 2-[5-(2-trifluoromethylphenyl)-3,6-dihydro-2H-pyridin-1-yl]-3-methyl-6-pyridin-4-yl-3H-pyrimidin-4-one]
8.10 | Cn1c(N2CCC=C(Cc3ccccc3)C2)nc(-c2ccncc2)cc1=O [Compound A050, 2-(5-benzyl-3,6-dihydro-2H-pyridin-1-yl)-3-methyl-6-pyridin-4-yl-3H-pyrimidin-4-one]
7.57 | Cn1c(N2CCC=C(COc3ccc(F)cc3)C2)nc(-c2ccncc2)cc1=O [Compound A056, 2-[5-(4-fluorophenoxymethyl)-3,6-dihydro-2H-pyridin-1-yl]-3-methyl-6-pyridin-4-yl-3H-pyrimidin-4-one]
7.62 | Cn1c(N2CCC=C(c3ccc(C(=O)N4CCCC4)cc3)C2)nc(-c2ccncc2)cc1=O [Compound A057, 2-[5-(4-pyrrolidinylcarbonylphenyl)-3,6-dihydro-2H-pyridin-1-yl]-3-methyl-6-pyridin-4-yl-3H-pyrimidin-4-one]
8.19 | Cn1c(N2CCC=C(c3ccccc3)C2)nc(-c2ccncn2)cc1=O [Compound B001, 2-(5-phenyl-3,6-dihydro-2H-pyridin-1-yl)-3-methyl-6-pyrimidin-4-yl-3H-pyrimidin-4-one]
8.96 | Cn1c(N2CCC=C(c3ccccc3F)C2)nc(-c2ccncn2)cc1=O [Compound B002, 2-[5-(2-fluorophenyl)-3,6-dihydro-2H-pyridin-1-yl]-3-methyl-6-pyrimidin-4-yl-3H-pyrimidin-4-one]
8.20 | Cn1c(N2CCC=C(c3ccc(F)cc3)C2)nc(-c2ccncn2)cc1=O [Compound B004, 2-[5-(4-fluorophenyl)-3,6-dihydro-2H-pyridin-1-yl]-3-methyl-6-pyrimidin-4-yl-3H-pyrimidin-4-one]
9.42 | Cn1c(N2CCC=C(c3ccccc3Cl)C2)nc(-c2ccncn2)cc1=O [Compound B005, 2-[5-(2-chlorophenyl)-3,6-dihydro-2H-pyridin-1-yl]-3-methyl-6-pyrimidin-4-yl-3H-pyrimidin-4-one]
8.41 | Cn1c(N2CCC=C(c3ccc(F)cc3F)C2)nc(-c2ccncn2)cc1=O [Compound B012, 2-[5-(2,4-difluorophenyl)-3,6-dihydro-2H-pyridin-1-yl]-3-methyl-6-pyrimidin-4-yl-3H-pyrimidin-4-one]
8.25 | Cn1c(N2CCC=C(c3ccc(Cl)cc3Cl)C2)nc(-c2ccncn2)cc1=O [Compound B017, 2-[5-(2,4-dichlorophenyl)-3,6-dihydro-2H-pyridin-1-yl]-3-methyl-6-pyrimidin-4-yl-3H-pyrimidin-4-one]
8.11 | COc1ccc(C2=CCCN(c3nc(-c4ccncn4)cc(=O)n3C)C2)cc1 [Compound B022, 2-[5-(4-methoxyphenyl)-3,6-dihydro-2H-pyridin-1-yl]-3-methyl-6-pyrimidin-4-yl-3H-pyrimidin-4-one]
8.62 | COc1cccc(OC)c1C1=CCCN(c2nc(-c3ccncn3)cc(=O)n2C)C1 [Compound B026, 2-[5-(2,6-dimethoxyphenyl)-3,6-dihydro-2H-pyridin-1-yl]-3-methyl-6-pyrimidin-4-yl-3H-pyrimidin-4-one]
8.59 | Cn1c(N2CCC=C(c3ccccc3C(F)(F)F)C2)nc(-c2ccncn2)cc1=O [Compound B027, 2-[5-(2-trifluoromethylphenyl)-3,6-dihydro-2H-pyridin-1-yl]-3-methyl-6-pyrimidin-4-yl-3H-pyrimidin-4-one]
7.77 | Cn1c(N2CCC=C(c3ccccc3-c3ccccc3)C2)nc(-c2ccncn2)cc1=O [Compound B033, 2-(5-biphenyl-2-yl-3,6-dihydro-2H-pyridin-1-yl)-3-methyl-6-pyrimidin-4-yl-3H-pyrimidin-4-one]
7.77 | Cn1c(N2CCC=C(c3ccsc3)C2)nc(-c2ccncn2)cc1=O [Compound B043, 2-(5-thiophen-3-yl-3,6-dihydro-2H-pyridin-1-yl)-3-methyl-6-pyrimidin-4-yl-3H-pyrimidin-4-one]
8.05 | Cn1c(N2CCC=C(c3cccs3)C2)nc(-c2ccncn2)cc1=O [Compound B044, 2-(5-thiophen-2-yl-3,6-dihydro-2H-pyridin-1-yl)-3-methyl-6-pyrimidin-4-yl-3H-pyrimidin-4-one]
8.29 | Cn1c(N2CCC=C(c3noc4ccccc34)C2)nc(-c2ccncn2)cc1=O [Compound B049, 2-[5-(benzisoxazole-3-yl)-3,6-dihydro-2H-pyridin-1-yl]-3-methyl-6-pyrimidin-4-yl-3H-pyrimidin-4-one]
8.17 | Cn1c(N2CCC=C(c3ccc(C(=O)N4CCCC4)cc3)C2)nc(-c2ccncn2)cc1=O [Compound B057, 2-[5-(4-pyrrolidinylcarbonylphenyl)-3,6-dihydro-2H-pyridin-1-yl]-3-methyl-6-pyrimidin-4-yl-3H-pyrimidin-4-one]
